Data: the supplement of paper PMC10307832

How the values were obtained:
Test in all cases: relative viability (nuclei count vs DMSO), 5 days (fraction); higher = more cells survive
YM155 + Luminespib = compound: COCC[n+]1c2c(n(Cc3cnccn3)c1C)C(=O)c1ccccc1C2=O [YM155] + CCNC(=O)c1noc(-c2cc(C(C)C)c(O)cc2O)c1-c1ccc(CN2CCOCC2)cc1 [Luminespib] (partner 0.01 µM)
Method in brief: (§1)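 Medians of duplicate plates are given as relative viability. That measure is the nuclei count in treated wells divided by the count in vehicle wells. Counts were taken on 4× images of lung cancer cell lines in 1536-well plates, 5 days after pin-tool dosing the day after seeding with one drug alone or a fixed anchor-drug dose plus five library-drug doses (not always all listed) in √10 steps.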

Quizartinib + Decitabine = compound: CC(C)(C)c1cc(NC(=O)Nc2ccc(-c3cn4c(n3)sc3cc(OCCN5CCOCC5)ccc34)cc2)no1 [Quizartinib] + Nc1ncn([C@H]2C[C@H](O)[C@@H](CO)O2)c(=O)n1 [Decitabine] (partner 2 µM)
Method in brief: as §1

YM155 + Dasatinib = compound: COCC[n+]1c2c(n(Cc3cnccn3)c1C)C(=O)c1ccccc1C2=O [YM155] + Cc1nc(Nc2ncc(C(=O)Nc3c(C)cccc3Cl)s2)cc(N2CCN(CCO)CC2)n1 [Dasatinib] (partner 0.075 µM)
Method in brief: as §1

Quizartinib + Bortezomib = compound: CC(C)(C)c1cc(NC(=O)Nc2ccc(-c3cn4c(n3)sc3cc(OCCN5CCOCC5)ccc34)cc2)no1 [Quizartinib] + CC(C)C[C@H](NC(=O)[C@H](Cc1ccccc1)NC(=O)c1cnccn1)B(O)O [Bortezomib] (partner 0.002 µM)
Method in brief: as §1

Cell Line | relative viability (YM155 + Luminespib; first compound 0.002 µM) | relative viability (YM155 + Luminespib; first compound 0.006325 µM) | relative viability (YM155 + Luminespib; first compound 0.02 µM) | relative viability (YM155 + Luminespib; first compound 0.06325 µM) | relative viability (Quizartinib + Decitabine; first compound 0.001 µM) | relative viability (Quizartinib + Decitabine; first compound 0.003162 µM) | relative viability (Quizartinib + Decitabine; first compound 0.01 µM) | relative viability (Quizartinib + Decitabine; first compound 0.1 µM) | relative viability (YM155 + Dasatinib; first compound 0.002 µM) | relative viability (YM155 + Dasatinib; first compound 0.006325 µM) | relative viability (YM155 + Dasatinib; first compound 0.02 µM) | relative viability (YM155 + Dasatinib; first compound 0.06325 µM) | relative viability (Quizartinib + Bortezomib; first compound 0.001 µM) | relative viability (Quizartinib + Bortezomib; first compound 0.003162 µM) | relative viability (Quizartinib + Bortezomib; first compound 0.01 µM) | relative viability (Quizartinib + Bortezomib; first compound 0.03162 µM) | relative viability (Quizartinib + Bortezomib; first compound 0.1 µM) | relative viability (Quizartinib + Decitabine; first compound 0.03162 µM)
SK-MES-1 | 0.437 | 0.359 | 0.234 | 0.169 | 0.414 | 0.325 | 0.446 | 0.322 | 0.447 | 0.34 | 0.332 | 0.154 |  |  |  |  |  | 
NCI-H1975 | 0.283 | 0.253 | 0.209 | 0.156 | 0.361 | 0.368 | 0.632 | 0.358 | 0.312 | 0.334 | 0.352 | 0.233 | 0.333 | 0.374 | 0.389 | 0.368 | 0.497 | 0.379
HCC-78 |  |  |  |  | 0.651 | 0.624 | 0.619 | 0.751 | 0.313 | 0.487 | 0.477 | 0.47 | 0.435 | 0.477 | 0.546 | 0.511 | 0.448 | 0.631
H3255 | 0.752 | 0.949 | 0.948 | 1.02 |  | 0.576 | 0.674 | 0.738 | 0.379 | 0.339 | 0.534 | 0.405 | 0.776 | 0.713 | 0.7 | 0.946 | 0.774 | 0.601
NCI-H1299 |  |  |  |  |  |  |  |  |  |  |  |  |  | 0.985 | 1.01 | 1.02 | 1.04 | 
NCI-H441 | 0.327 | 0.394 | 0.259 | 0.301 | 0.236 | 0.247 | 0.213 | 0.278 | 0.609 | 0.674 | 0.558 | 0.495 | 0.476 | 0.466 | 0.451 | 0.576 | 1.57 | 0.238
NCI-H1755 | 0.519 | 0.445 | 0.473 | 0.583 | 0.59 | 0.676 | 0.71 | 0.734 | 0.449 | 0.4 | 0.467 | 0.453 | 0.858 | 0.979 | 0.956 | 0.973 | 0.969 | 0.722
LCLC-97TM1 | 0.838 | 0.816 | 0.717 | 0.71 | 0.225 | 0.253 | 0.237 | 0.21 | 0.761 | 0.954 | 0.739 | 0.835 |  | 0.689 | 0.811 |  | 0.527 | 0.218
NCI-H2085 | 0.406 | 0.474 | 0.338 | 0.369 | 0.521 | 0.536 | 0.58 | 0.583 | 0.287 | 0.224 | 0.23 | 0.211 | 0.981 | 0.994 | 1.1 | 0.952 | 0.982 | 0.544
BEN | 0.33 | 0.728 | 0.617 | 0.417 | 0.586 | 0.756 | 0.652 | 0.728 | 0.331 | 0.269 | 0.36 | 0.348 | 0.583 | 0.677 | 0.703 | 0.766 | 0.83 | 0.649
